Results on 18 molecules are retold here after the SangsterLogP compilation.

`CCCCN=C=S` returned a logP of 2.92. In turn, `S=C=Nc1ccc(I)cc1` came in with a logP of 4.22. Turning to `S=C=Nc1cccc(Cl)c1`, the logP turned out to be 3.36. Molecule `O=C(O)c1cccc(N=C=S)c1` had a logP of 2.4. The figure for `N#Cc1cccc(N=C=S)c1` is 3.13; for `COc1cccc(N=C=S)c1` it is 3.68.

`N#Cc1ccc(N=C=S)cc1` came in with a logP of 2.65. `O=[N+]([O-])c1ccc(N=C=S)cc1` yielded a logP of 3.55. As for `COc1ccc(N=C=S)cc1`, the logP turned out to be 3.58.

`S=C=Nc1ccc(Cl)cc1` showed a logP of 3.91.

On to `CCC(C)N=C=S` (stereo not drawn), for which the logP turned out to be 2.81. Take `O=C(O)c1ccc(N=C=S)cc1`: the logP was 2.44. On to `CN=C=S`, for which the logP stood at 0.94.

On to `S=C=Nc1cccc(Br)c1`, for which the logP was 4.12.

For `CC(C)CN=C=S`, the logP amounted to 2.82.

`Oc1cccc(N=C=S)c1` displayed a logP of 3.23. In turn, `CN(C)c1ccc(N=C=S)cc1` had a logP of 3.96. The figure for `Cc1ccc(N=C=S)cc1` is 3.9.

Usually logP stands for the decadic logarithm of the partition coefficient of the neutral form, usually between octanol and water. High values mean a more lipophilic compound, low ones a more hydrophilic compound.
